In US8747740B2, “Process and apparatus for generating haloamine biocide” (Hercules Incorporated, priority 2007, dated 2014):

Test: Stability of chloramine in aqueous solution
Assay type: physicochemical
Conditions: pH of about 10 to about 11; partially decomposes at higher concentrations or lower pH

For NCl [chloramine, Monochloramine], the “concentration up to which chloramine is stable” value was “up to 1,000 ppm”.
